Active and inactive are the calls of the source.
Tests used:
[1] = system: Vero; test: cells; assay type: functional; details: Chlorocebus sabaeus
[2] = cells; assay type: functional
[3] = Luminescence Cell-Based Dose Retest to Confirm Inhibitors of Cancer Stem Cells. [Related pubchem assays (depositor defined):AID2717, AID2721]; assay type: functional; details: Homo sapiens
[4] = NIH-3T3 fibroblast cytotoxicity, dose response, cytotoxicity control, cell-based, fluorescence, Alamar Blue, secondary assay (AID 2327); assay type: functional;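 note: NIH-3T3 mouse fibroblasts cultured with fluconazole at 8 µg/mL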
[5] = target: T1, Calpain-2 catalytic subunit (Sus scrofa, UniProt P43367); test: pig calpain II inhibitor potency, dose response, biochemical, fluorogenic peptide substrate (AID 1420); assay type: functional
T1 sequence (P43367 whole entry): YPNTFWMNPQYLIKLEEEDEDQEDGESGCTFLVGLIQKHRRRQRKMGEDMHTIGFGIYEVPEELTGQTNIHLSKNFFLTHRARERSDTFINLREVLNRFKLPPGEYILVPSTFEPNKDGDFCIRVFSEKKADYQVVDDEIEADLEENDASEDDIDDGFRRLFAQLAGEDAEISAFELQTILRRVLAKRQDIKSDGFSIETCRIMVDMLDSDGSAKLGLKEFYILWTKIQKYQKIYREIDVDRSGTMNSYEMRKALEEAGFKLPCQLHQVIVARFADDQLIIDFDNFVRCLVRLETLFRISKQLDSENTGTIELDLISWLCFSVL

[6] = target: T2, Ubiquitin-conjugating enzyme E2 N (Homo sapiens, UniProt P61088); assay type: functional;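 note: Dose-response confirmation in a TR-FRET assay detecting UBC13-driven polyubiquitin chain formation, inhibition measured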
T2 sequence (P61088 whole entry): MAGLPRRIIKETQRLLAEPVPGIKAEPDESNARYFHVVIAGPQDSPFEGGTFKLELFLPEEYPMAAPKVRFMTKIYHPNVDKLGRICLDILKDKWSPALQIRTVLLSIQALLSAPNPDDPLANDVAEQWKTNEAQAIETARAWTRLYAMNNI

[7] = target: T3, Polyadenylate-binding protein 1 (Homo sapiens, UniProt P11940); test: PABP1 MLLE–PAM2 interaction inhibitors, dose response, miRNA deadenylation inhibitor project, biochemical, fluorescence polarization, Cy5-PAM2 peptide, secondary (AID 602260); assay type: functional; details: read-out: IC50_Mean
[8] = target: T3, Polyadenylate-binding protein 1; test: PABP1 MLLE–PAM2 binding inhibitor potency, dose response, biochemical, fluorescence polarization, FITC-PAM2 peptide (AID 602259); assay type: functional; details: read-out: IC50_Mean
[9] = C. albicans growth with fluconazole, confirmation, fluorescence, retest (AID 2467); assay type: functional, cell-based
[10] = system: P388; test: cells; assay type: functional;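 note: compound exposure lasted 48 hours before growth was measured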
[11] = system: SN12K1; test: cells; assay type: functional
[12] = target: Large T antigen (Simian virus 40, UniProt P03070); assay type: functional, Betapolyomavirus macacae;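 note: Confirmatory-stage PubChem screen for compounds that inhibit SV40 T antigen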
[13] = target: T4, Streptokinase A (Streptococcus pyogenes serotype M1, UniProt P10520); test: S. pyogenes streptokinase expression inhibitors, potency, dose response, plasminogen activation absorbance, OD405 (AID 1914); assay type: functional, Streptococcus pyogenes M1 GAS;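 note: secreted streptokinase activity via plasminogen activation per viability signal from cell pellet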
T4 sequence (P10520 whole entry): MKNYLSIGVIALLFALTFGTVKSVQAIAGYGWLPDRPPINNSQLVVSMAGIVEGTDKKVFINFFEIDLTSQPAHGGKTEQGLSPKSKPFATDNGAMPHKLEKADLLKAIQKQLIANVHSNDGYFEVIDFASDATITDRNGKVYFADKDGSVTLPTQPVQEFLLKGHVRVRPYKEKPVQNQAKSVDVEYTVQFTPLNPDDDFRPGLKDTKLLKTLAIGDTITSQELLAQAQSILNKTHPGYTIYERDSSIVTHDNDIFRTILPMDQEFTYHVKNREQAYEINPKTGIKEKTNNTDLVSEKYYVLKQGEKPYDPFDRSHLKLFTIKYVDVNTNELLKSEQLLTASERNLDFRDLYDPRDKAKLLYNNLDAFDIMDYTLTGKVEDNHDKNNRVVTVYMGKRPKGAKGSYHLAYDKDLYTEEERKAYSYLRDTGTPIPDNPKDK

[14] = system: Streptococcus; test: Group A Streptococcus viability loss, dose response, counter-screen for streptokinase expression inhibitor project, luminescence, BacTiterGlo (AID 1915); assay type: functional, organism-based;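 note: potency for reduction of bacterial viability or growth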
[15] = system: Streptococcus sp. 'group A'; test: growth inhibition of control SK(-) GAS strain, dose response, counter-screen for streptokinase expression inhibitor project, luminescence, kanamycin, BacTiterGlo, confirmation (AID 1900); assay type: functional, organism-based
[16] = target: FAD-linked sulfhydryl oxidase ALR (Homo sapiens, UniProt P55789); test: inhibitors of human ALR sulfhydryl oxidase, dose response, biochemical, H2O2 detection, luminescence, cherry-pick (AID 493248)
Sequence of FAD-linked sulfhydryl oxidase ALR (P55789 whole entry): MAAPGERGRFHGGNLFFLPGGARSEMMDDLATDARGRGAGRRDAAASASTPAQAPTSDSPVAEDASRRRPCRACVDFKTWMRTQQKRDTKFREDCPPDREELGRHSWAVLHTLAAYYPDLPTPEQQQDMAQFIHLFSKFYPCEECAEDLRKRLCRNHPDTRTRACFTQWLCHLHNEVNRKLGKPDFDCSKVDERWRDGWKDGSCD

Sequence of Large T antigen (P03070 whole entry): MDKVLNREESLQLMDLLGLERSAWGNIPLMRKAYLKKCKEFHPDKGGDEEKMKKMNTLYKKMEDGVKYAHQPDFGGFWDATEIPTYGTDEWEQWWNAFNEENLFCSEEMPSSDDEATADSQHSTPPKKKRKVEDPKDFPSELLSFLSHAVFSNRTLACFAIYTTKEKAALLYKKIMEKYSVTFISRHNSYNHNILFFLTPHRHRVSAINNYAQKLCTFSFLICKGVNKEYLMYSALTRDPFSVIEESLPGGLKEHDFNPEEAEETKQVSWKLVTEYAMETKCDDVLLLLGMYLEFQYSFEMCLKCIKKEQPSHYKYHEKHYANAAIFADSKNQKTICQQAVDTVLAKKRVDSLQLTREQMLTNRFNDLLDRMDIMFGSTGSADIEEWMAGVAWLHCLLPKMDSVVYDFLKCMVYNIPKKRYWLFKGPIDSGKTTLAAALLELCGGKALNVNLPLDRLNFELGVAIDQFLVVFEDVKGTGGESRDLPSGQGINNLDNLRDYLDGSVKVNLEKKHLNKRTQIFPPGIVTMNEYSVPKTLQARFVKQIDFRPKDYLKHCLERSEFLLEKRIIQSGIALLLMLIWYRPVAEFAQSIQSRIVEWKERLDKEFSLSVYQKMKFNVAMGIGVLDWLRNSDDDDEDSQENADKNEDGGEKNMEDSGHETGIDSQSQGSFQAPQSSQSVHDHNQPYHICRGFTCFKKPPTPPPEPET
T3 sequence (P11940 whole entry): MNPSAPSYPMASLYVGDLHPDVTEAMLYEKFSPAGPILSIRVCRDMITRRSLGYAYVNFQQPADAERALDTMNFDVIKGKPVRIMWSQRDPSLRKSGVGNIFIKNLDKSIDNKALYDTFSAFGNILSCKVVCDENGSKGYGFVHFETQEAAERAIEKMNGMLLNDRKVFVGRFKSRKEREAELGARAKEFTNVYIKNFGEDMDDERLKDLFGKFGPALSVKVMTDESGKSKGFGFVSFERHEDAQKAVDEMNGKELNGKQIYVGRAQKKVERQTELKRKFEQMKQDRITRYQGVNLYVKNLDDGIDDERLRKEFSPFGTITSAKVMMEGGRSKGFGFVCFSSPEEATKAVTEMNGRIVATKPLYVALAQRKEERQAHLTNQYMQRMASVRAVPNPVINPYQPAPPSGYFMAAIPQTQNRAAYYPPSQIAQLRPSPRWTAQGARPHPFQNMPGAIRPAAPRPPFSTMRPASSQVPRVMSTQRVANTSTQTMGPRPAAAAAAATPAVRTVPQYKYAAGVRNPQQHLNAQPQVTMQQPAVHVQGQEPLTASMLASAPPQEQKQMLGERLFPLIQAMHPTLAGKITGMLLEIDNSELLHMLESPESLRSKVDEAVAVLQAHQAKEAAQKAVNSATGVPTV

## O=C(NCCCN1CCOCC1)c1ccc(CSc2ccc(Cl)cc2)cc1
[1]
  CC50: > 25 µM (active)
[2]
  IC50: 34.3 µM (active)
[3]
  AC50: 1.25 µM (active)

## CC(NC(=O)Nc1ccccc1F)C(C)(C)C (configuration not stated)
[4]
  EC50: > 160 µM (inconclusive)

## Cc1ccc(NCc2nnc(SCC(=O)N(Cc3ccccc3)C(C)(C)C)o2)c(C)c1
[5]
  IC50: 5.13 µM (not active)

## Cc1ccc(S(=O)(=O)N2CCCCC2)cc1NC(=O)COC(=O)c1ccc2c(c1)OCO2
[5]
  IC50: 1.74 µM (not active)

## O=C(NCC1CCN(Cc2ccccc2F)CC1)C1CCCN(c2ncnc3c2nc2n3CCCCC2)C1 (configuration not stated)
[6]
  IC50: > 20 µM (inactive)

## C#CCOCCOCCOCCNc1nc(N2CCN(C(=O)[C@H]([C@@H](C)CC)n3cc([C@@H](N)Cc4ccc(O)cc4)nn3)CC2)nc(N2CCN(C(=O)[C@H](CCCCN)n3cc([C@@H](N)CO)nn3)CC2)n1
[6]
  IC50: > 20 µM (inactive)

## COc1cc(NS(=O)(=O)c2ccc(NC(=S)NC(=O)c3sc4ccccc4c3Cl)cc2)nc(OC)n1
[7]
  IC50: > 66 µM (inactive)
[5]
  IC50: > 50 µM (not active)
[8]
  IC50: > 66 µM (inactive)

## CCOc1ccc2nc(N(CCCN(C)C)C(=O)c3ccc(C(=O)c4ccccc4)cc3)sc2c1
[6]
  IC50: > 20 µM (inactive)

## CCOC(=O)C(=NC1CCCCC1)NNc1cccc(C(F)(F)F)c1
[4]
  EC50: > 150 µM (inconclusive)
[9]
  EC50: > 38 µM (not active)

## CCCCCCCCCCSCC(CO)NC(=O)/C=C/c1c(C)[nH]c(=O)[nH]c1=O (configuration not stated)
[10]
  GI50: 0.479 µM (active)
[10]; Mus musculus, P388
  GI50: 0.284 µM (active)
[11]
  GI50: 1.26 µM (inactive)
[11]; Homo sapiens, SN12K1
  GI50: 1.05 µM (active)

## Cc1nnc(O)nc1Nc1ccc(O)cc1
[12]
  IC50: 4.52 µM (active)

## CC(=O)O[C@H]1C[C@@]2(C)[C@@H](C[C@@H](O)[C@H]3[C@@]4(C)CC[C@@H](O)[C@@H](C)C4CC[C@@]32C)/C1=C(\CCC=C(C)C)C(=O)O (some centres not stated)
[13]
  EC50: 1.78 µM (active)
[14]
  EC50: 13.7 µM (active)
[15]
  EC50: 2.26 µM (active)
[12]
  IC50: 24.7 µM (active)

## CN1CCN(S(=O)(=O)c2ccc(N3CCN(c4ccc(O)cc4)CC3)c([N+](=O)[O-])c2)CC1
[16]
  AC50: 2.62 µM (active)
[12]
  IC50: 8.6 µM (active)

## COc1ccc(CCNC(=O)CCC2COc3ccccc3O2)cc1OC (configuration not stated)
[4]
  EC50: > 150 µM (inactive)
[9]
  EC50: 16.9 µM (active)
